# Assay results: patent US5985937A, “Use of 2,4-distributed phenol derivatives as 5-lipoxygenase inhibitors” (priority 1994, dated 1999)
# Assays:
# [1] = tested on: dyspnea; test: treatment of race horses with dyspnea; format: in vivo, horse; conditions: eleven race horses, intravenous 50 mg/day, one week
# Procedure: Eleven race horses manifesting dyspnea of variable degree, accompanied of great sensibility in the movements and, in the majority of the cases respiratory anxiety, coughs and mucous-purulent nasal flux, were treated with an intravenous dose of Bobel-24 of 50 mg/day during one week.
# [2] = tested on: bursitis; test: treatment of horses with bursitis; format: in vivo, horse; conditions: seven young horses, 15 mg/day intraarticular infiltration
# [3] = tested on: lactatedehydrogenase (LDH); test: liberation of lactatedehydrogenase (LDH) into the medium; conditions: check for cellular lysis
# Excerpt: In order to show the 5-LO inhibiting activity of the products of the present invention, a specific test based on human polymorphonuclear leukocytes is chosen.
# [4] = solubility in aqueous medium; format: physicochemical; conditions: in words
# Procedure: Due to the insolubility of Bobel-24 in aqueous medium, it was previously dissolved in a 50% solution of lysine. An anionic sulfonated detergent was used as foaming agent, containing 10-15% tegobetaine, 20-30% texapone N-40, and water. A 2% shampoo was prepared with the following composition: 2 g Bobel-24, 12 ml of 50% aqueous solution of lysine, 48 ml of water, 40 ml of the anionic sulfonated detergent.
# [5] = tested on: canine seborrheic dermatitis; test: clinical trial on canine seborrheic dermatitis; format: in vivo, dog; design: key to Evolution, etiology idiopathic / Evolution, etiology demodex / Evolution, etiology follicular cyst / Evolution, etiology pyoderma / Evolution, etiology dermatomycosis / Evolution, etiology allergic to fleas / Evolution, etiology hypothyroidism / Evolution, etiology leishmaniosis: +++: very good response, clinically cured; ++: good response, marked lowering in the clinical signs; +: moderate response, improvement; -: negative response or no apparent improvement; key to Evolution, etiology dermatophytes: +++: very good response, total recovery; ++: good response, functionability recovery; +: moderate response, improvement; -: negative response or no apparent improvement
# Procedure: (§1) The animals had been diagnosed to suffer from seborrheic dermatitis, and the diagnosis was confirmed by a biopsy. The treatment consisted of a weekly bath with a 2% Bobel-24 shampoo and evaluation of the treatment after 15 days. The efficiency of the treatment was analyzed evaluating the following therapeutic symptoms; removal of scabs and scales, greasiness reduction, sheborrheic odor reduction, relieve of the pruritus, and antiinflammatory effect. […] In view of the results the following conclusions were reached: […]
# [6] = tested on: herpes simplex; test: test for antiviral activity in vitro
# Excerpt: (§2) The 2,4-disubstituted phenol derivatives of the present invention are anti-herpetic agents in vivo, since they eliminate the symptoms of patients suffering from different types of herpes simplex (genital herpes, herpes of mouth and lips, recurrent herpes), and of patients suffering from herpes zoster. There is no relapse after leaving the treatment. The products are active both intramuscularly and topically, the first via being preferred.
# A total of 25 patients with symptoms of different herpes simplex (genital, buccal or reincident) were treated with 15 mg/day of Bobel-24, intramuscularly, during a month, with the following results: with the ten patients of genital herpes simplex, the results was excellent in 7 cases, good in 2 and regular in 1; of the twelve with buccal herpes simplex it was excellent in 9 cases, good in 2 and regular in 1; of the 3 with reincident herpes it was excellent in 2 of the cases and good in 1. […] The case of genital herpes which resulted "regular" was an obese and diabetic […], and although there was an improvement there was also reincidency. Independently an test for antiviral activity in vitro resulted negative.
# [7] = tested on: herpes zoster; test: in vivo activity in patients with herpes zoster; design: species or system human (patients); conditions: of 21 patients; 15 mg/day intramuscular injection, a month
# Excerpt: as §2
# A total of 21 patients with clear symptoms of herpes zoster were treated with 15 mg/day of Bobel-24, via intramuscular injection, during a month. The results concerning the disappearance of the symptoms were the following: excellent in 18 cases, good in 2 cases, and regular in 1 case.
# [8] = tested on: canine seborrheic dermatitis; test: clinical trial on canine seborrheic dermatitis; format: in vivo, dog; design: key: +++: very good response, total recovery; ++: good response, functionability recovery; +: moderate response, improvement; -: negative response or no apparent improvement; conditions: weekly bath 2% shampoo, 15 days
# Procedure: as §1
# [9] = tested on: rheumatoid arthritis, hip dysplasia, equine cauda, deforming spondolitis or coxarthrosis; test: treatment of dogs with articular or musculoskeletal diseases; format: in vivo, dog; conditions: twenty dogs, oral 1-3 mg/kg.day
# [10] = weekly bath 2% shampoo, 15 days, Scotty T 4 years
smiles,measurement,setting,value
"Oc1c(I)cc(I)cc1I [Bobel-24, 2,4,6-triiodophenol]",horses suffering relapse,[1],None of the horses suffered relapse
same,improvement,[1],The improvement was quite high
same,time to disappearance of all the symptoms,[1],≤ 9 days
same,"time to reincorporation to training, without any sequel",[1],21 days
same,reduction in inflammation,[2],a reduction in the inflammation was obtained
same,LDH liberation into the medium,[3],cannot be attributed to cellular lysis
same,solubility in aqueous medium,[4],insolubility
same,"secondary or adverse effects (mucosal or skin irritation, unpleasant smells)","[5]; 2% shampoo, topical",absence of secondary or adverse effects
same,"scabs, greasiness, seborrheic odor, erithema and pruritus","[5]; 2% shampoo, all animals except one with dermatophytosis","a lowering of the scabs, disappearance of the greasiness and the seborrheic odor, disappearance of the erithema and the pruritus was observed"
same,result in idiopathic seborrheic dermatitis,"[5]; 2% shampoo, improvement similar to oral therapy of corticoids",excellent
same,result in secondary seborrheic dermatitis,[5]; Bobel-24 shampoo,"the shampoo improves the aspect of the fur, but does not combat the ethiological agent responsible for the disease"
same,"Evolution, etiology hypothyroidism","[5]; weekly bath 2% shampoo, 15 days, Cocker A 9 years",++
same,"Evolution, etiology leishmaniosis","[5]; weekly bath 2% shampoo, 15 days, Cocker S 8 years",++
same,"Evolution, etiology demodex","[5]; weekly bath 2% shampoo, 15 days, Mongrel 4 years",++
same,"Evolution, etiology allergic to fleas",[5]; [10],++
same,"Evolution, etiology dermatophytes",[5]; [10],-
same,"Evolution, etiology follicular cyst","[5]; weekly bath 2% shampoo, 15 days, Yorkshire 7 years",++
same,"Evolution, etiology idiopathic","[5]; weekly bath 2% shampoo, 15 days, b367 Cocker A 13, b393 Cocker S 15, b394 Cocker S 12 years",+++
same,"Evolution, etiology pyoderma","[5]; weekly bath 2% shampoo, 15 days, b373 Pekinese 2, b396 German shepherd 10 years",++
same,"Evolution, etiology dermatomycosis","[5]; weekly bath 2% shampoo, 15 days, b381 Schnauzer 3, b387 German shepherd 1 year",++
same,antiviral activity in vitro,[6],negative
same,"cases with excellent result, herpes zoster",[7],18 cases
same,"cases with good result, herpes zoster",[7],2 cases
same,"cases with regular result, herpes zoster",[7],1 cases
same,"Evolution, etiology allergic","[8]; b363 Poodle 6, b364 Mongrel 14, b374 Mongrel 10, b376 Belgian shepherd 10, b382 Poodle 9, b392 Mongrel 5 years",+
same,"Evolution, etiology leishmania","[8]; b369 German shepherd 10, b377 Pekinese 11, b379 German shepherd 3 years",+
same,response,[9],very good response within 1 or 2 weeks
